Here are results for 15 compounds from ChEMBL document CHEMBL4376876 (J Med Chem, 2020).

Structures are written as SMILES. ≈ marks a conversion by molar mass, not a printed value. A value given as a limit tells only on which side of the number the result lay.

The test system of series [1] is Mycobacterium tuberculosis. Briefly: Antimycobacterial activity against Mycobacterium tuberculosis H37Rv transfected with pMV261 empty vector after 7 days by resazurin dye-based assay. The conditions noted are these: 168 h. It is filed as functional. A general note: Alamar Blue is a resazurin reagent that responds to reducing activity.
For series [2], the system named is Mycobacterium tuberculosis. Briefly: Antibacterial activity against Mycobacterium tuberculosis H37Rv after 7 days by resazurin dye-based assay. It is filed as functional. Conditions: 168 h.
Series [3] is described as follows: Stability in Middlebrook 7H9 medium at 10 ug/ml after 7 days relative to control. It is filed as physicochemical. The conditions noted are these: read-out: Stability.
In series [4] the test system is Mycobacterium tuberculosis. Briefly: Antimycobacterial activity against Mycobacterium tuberculosis H37Rv over expressing InhA after 7 days by resazurin dye-based assay. The conditions noted are these: 168 h. It is filed as functional.

As a reminder, the MIC is the least concentration at which growth counts as inhibited. The low end stands for inhibition by little substance, the high end for a need for much substance. With `CC/C(C)=C1\OC(=O)[C@H](C)[C@H](O)[C@H](Cc2cccnc2)NC(=O)[C@@H](NC(=O)c2ncccc2O)[C@@H](C)OC1=O` [PYRIDOMYCIN], the MIC in series [1] was 0.74 µM (≈ 0.4 µg/mL); in series [2], 0.55 to 3.05 µM (≈ 0.297 to 1.65 µg/mL); in series [4], 11.6 µM (≈ 6.25 µg/mL). In addition, the remaining at 168 h, 10 ug/ml in series [3] was more than 50%. Compound `C[C@H](c1ccccc1)[C@H]1OC(=O)[C@H](C)[C@H](O)[C@H](Cc2cccnc2)NC(=O)[C@@H](NC(=O)c2ncccc2O)[C@@H](C)OC1=O` yielded an MIC in series [2] of 2.6 µM (≈ 1.54 µg/mL).

The compound `CC(C)[C@@H]1OC(=O)[C@H](C)[C@H](O)[C@H](Cc2cccnc2)NC(=O)[C@@H](NC(=O)c2ncccc2O)[C@@H](C)OC1=O` yielded an MIC in series [2] of 26 µM (≈ 13.7 µg/mL). Same read-out and setting: in the case of `CC[C@@H](C)[C@H]1NC(=O)[C@H](C)[C@H](O)[C@H](Cc2cccnc2)NC(=O)[C@@H](NC(=O)c2ncccc2O)[C@@H](C)OC1=O` it was 185 µM (≈ 100 µg/mL). On the same count and under the same terms, in the case of `C[C@H]1OC(=O)[C@H](C)[C@H](O)[C@H](Cc2cccnc2)NC(=O)[C@@H](NC(=O)c2ncccc2O)[C@@H](C)OC1=O` it was 49.9 µM (≈ 25 µg/mL); in that of `C[C@H]1OC(=O)[C@@H](CO)OC(=O)[C@H](C)[C@H](O)[C@H](Cc2cccnc2)NC(=O)[C@H]1NC(=O)c1ncccc1O`, 96.8 µM (≈ 50 µg/mL); in that of `C[C@H]1OC(=O)[C@@H]([C@@H](C)c2ccccc2)OC(=O)[C@H](C)[C@H](O)[C@H](Cc2cccnc2)NC(=O)[C@H]1NC(=O)c1ncccc1O`, 2.6 µM (≈ 1.54 µg/mL). Turning to `C[C@@H]1C(=O)N[C@H](C2CCCCC2)C(=O)O[C@H](C)[C@H](NC(=O)c2ncccc2O)C(=O)N[C@@H](Cc2cccnc2)[C@@H]1O`, in series [2], the lowest concentration to inhibit growth (MIC) was 136 µM (≈ 77.1 µg/mL). `CC(C)[C@H]1OC(=O)[C@H](C)[C@H](O)[C@H](Cc2cccnc2)NC(=O)[C@@H](NC(=O)c2ncccc2O)[C@@H](C)OC1=O`: the MIC in series [1] turned out to be 3.1 µM (≈ 1.64 µg/mL); in series [2], 3.2 µM (≈ 1.69 µg/mL); in series [4] it was 24.2 µM (≈ 12.8 µg/mL).

For `CC[C@H]1OC(=O)[C@H](C)[C@H](O)[C@H](Cc2cccnc2)NC(=O)[C@@H](NC(=O)c2ncccc2O)[C@@H](C)OC1=O`, the results for the MIC in series [1], in series [2] and in series [4] were 4.9 µM (≈ 2.52 µg/mL), 4.9 µM (≈ 2.52 µg/mL) and more than 19.1 µM, respectively. On to `CC[C@H](C)[C@H]1OC(=O)[C@H](C)[C@H](O)[C@H](Cc2cccnc2)NC(=O)[C@@H](NC(=O)c2ncccc2O)[C@@H](C)OC1=O`, for which the MIC in series [1], in series [2] and in series [4] was 2.9 µM (≈ 1.57 µg/mL) each time. For `C[C@H]1OC(=O)[C@@H](Cc2ccccc2)OC(=O)[C@H](C)[C@H](O)[C@H](Cc2cccnc2)NC(=O)[C@H]1NC(=O)c1ncccc1O`, the MIC in series [1] was 4.3 µM (≈ 2.48 µg/mL); in series [2] it was 4.3 µM (≈ 2.48 µg/mL); in series [4] it was more than 17.3 µM. In turn, `CC[C@@H](C)[C@H]1OC(=O)[C@H](C)[C@H](O)[C@H](Cc2cccnc2)NC(=O)[C@@H](NC(=O)c2ncccc2O)[C@@H](C)OC1=O` showed an MIC in series [2] of 1.5 µM (≈ 0.814 µg/mL). As for `NNC(=O)c1ccncc1` [ISONIAZID], the MIC in series [1] amounted to 1.2 µM (≈ 0.165 µg/mL); in series [4] it was 37.3 µM (≈ 5.12 µg/mL). In series [2], `CC(C)[C@H]1NC(=O)[C@@H](C)[C@@H](O)[C@H](Cc2cccnc2)NC(=O)[C@@H](NC(=O)c2ncccc2O)[C@@H](C)OC1=O` returned an MIC of 94.6 µM (≈ 49.9 µg/mL).
